# Measurements published in ChEMBL document CHEMBL3886467 (2016).
# Target: WD repeat-containing protein 5 (Homo sapiens, UniProt P61964)
# Experiment: Binding Assay: All the FP based experiments were performed in MICROFLUOR 2 Black, "U" Bottom, 96-well Microtiter Plates (ThermoSci.) and FP was measured as mP units in a microplate reader (Tecan Ultra) with excitation at 485 nm and emission at 530 nm. To dilutions of WDR5Δ23 (2.2-0 uM) in 100 ul assay buffer (0.1M Phosphate, 25 mM KCl, 0.01% Triton, pH 6.5) 20 ul of a fixed concentration of the tracer in the assay buffer was added, followed by an addition of 5 ul DMSO to give 125 ul of total volume. Each assay had two controls: blank (without protein and tracer) and tracer only (without protein). The plates were incubated on a shaker at room temperature to reach equilibrium and mP values were measured at the 3 hour time point.
row,Structure (SMILES),IC50 [µM]
1,CCC(CC)(NC(=O)C(C)C)C(=O)N[C@@H](CCCNC(=N)N)C(=O)NC1(C(=O)NC(c2ccc(Cl)cc2)c2ccc(Cl)cc2)CCCC1,< 3
2,CCC(CC)(NC(=O)C(C)C)C(=O)N[C@@H](CCCNC(=N)N)C(=O)N(C)C,> 30
3,CCC(CC)(NC(=O)C(C)C)C(=O)N[C@H](CCCNC(=N)N)C(=O)NC1(C(=O)NC(c2ccc(Cl)cc2)c2ccc(Cl)cc2)CCCC1,< 10

# The remaining lines, values ahead:
row,IC50 [µM],Structure (SMILES)
1,> 10,CC(=O)N[C@@H](C)C(=O)N[C@H](C(=O)N[C@@H](C)C(N)=O)c1ccc(NC(=N)N)cc1
2,> 10,CC(=O)N[C@@H](C)C(=O)N[C@@H](C(=O)N[C@@H](C)C(N)=O)c1ccc(NC(=N)N)cc1
3,< 10,CCNC(=O)[C@H](CCCNC(=N)N)NC(=O)C(CC)(CC)NC(=O)CC
